Article PMC12926254, “Novel pyrazole carboxylate derivatives as lonazolac bioisosteres with selective COX-2 inhibition: design, synthesis and anti-inflammatory activity” (Molecular Diversity, 2025)

Tests used:
[1] = test system: carrageenan-induced rat paw edema; experiment: Carrageenan-induced rat paw edema assay; type: in vivo
MTS cytotoxicity assay = type: cell-based; conditions: mouse, RAW 264.7 macrophages (heading: LPS-induced), read-out: Cytotoxicity IC50 (LPS-induced RAW 264.7 cells)
Description: Using Dulbecco’s Modified Eagle Medium (DMEM, Biowest L0060) supplemented with 10% foetal bovine serum (FBS) (Biowest, S1810) and 1% anti-biotic and anti-mycotic (Biowest, L0010-100), the RAW264.7 macrophage cell line (ATCC ® TIB-71TM) was cultivated. The cells were then incubated at 37 °C with 5% CO2 until they were confluent, which should be between 70 and 80%. After two to three days, the growth media was regularly changed. Trypsin–EDTA was then used to wash and collect the cells (Biowest, L0931-500).
The MTS (3-(4,5-dimethylthiazol-2-yl)-5-(3-carboxymethoxy-phenyl)-2-(4-sulfophenyl)-2H-tetrazolium) test (Promega, ab197010) was used to determine cell viability. In short, a 96-well plate was seeded with 5 × 10^3 cells per well, and the cells were then incubated for 24 h at 37 °C and 5% CO2. The cells were then re-incubated for 24 h at 37 °C and 5% CO2 after the medium was discarded and replaced with 180 µl of fresh growth media and 20 µl of sample (1000 ug, 250 ug, 63 ug, 16 ug, and 4 ug µg/mL). 20 µl of MTS was then added to each well, and the mixture was incubated for three hours at 37 °C with 5% CO2. […] Control cells were those that received no treatment.

COX-2 = biological target: T1, COX-2 (Homo sapiens, UniProt P35354); experiment: In vitro COX-2 inhibition (COX-2 Inhibitor Screening Kit-K547, Biovision); type: biochemical; conditions: for IC50: mean of six values ± standard deviation
T1 construct: purchased Biovision K547
T1 sequence (P35354 18-604): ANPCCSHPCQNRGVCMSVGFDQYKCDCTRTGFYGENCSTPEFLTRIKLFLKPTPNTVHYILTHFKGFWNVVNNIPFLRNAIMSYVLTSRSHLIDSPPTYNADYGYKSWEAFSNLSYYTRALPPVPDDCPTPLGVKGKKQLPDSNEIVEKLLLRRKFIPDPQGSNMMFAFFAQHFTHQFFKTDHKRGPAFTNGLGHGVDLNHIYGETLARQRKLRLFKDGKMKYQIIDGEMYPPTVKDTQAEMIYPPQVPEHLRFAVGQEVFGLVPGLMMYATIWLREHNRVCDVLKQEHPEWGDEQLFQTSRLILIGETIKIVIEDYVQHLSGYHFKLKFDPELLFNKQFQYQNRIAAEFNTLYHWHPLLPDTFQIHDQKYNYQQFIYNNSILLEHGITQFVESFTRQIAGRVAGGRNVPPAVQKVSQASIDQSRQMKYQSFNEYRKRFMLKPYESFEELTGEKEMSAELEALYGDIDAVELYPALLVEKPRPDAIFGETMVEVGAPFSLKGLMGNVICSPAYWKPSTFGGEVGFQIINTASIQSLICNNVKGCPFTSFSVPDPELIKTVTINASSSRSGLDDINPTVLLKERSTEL
Description: (§1) The IC50 value of the tested compounds was determined.
COX-2 inhibitor Screening Protocol: Dissolve the tested compounds in DMSO. Use COX Assay Buffer to dilute the relevant test concentration by 10X before using. Place 10 µl of diluted test inhibitor or Assay Buffer in the specified wells instead of the sample screen (S) or enzyme control (EC; no inhibitor). […] Before using, combine 2 µl of COX Cofactor with 398 µl of COX Assay Buffer to dilute COX Cofactor 200 times. Blend thoroughly. Just before using, mix 5 µl of the provided arachidonic acid with 5 µl of NaOH to make the arachidonic acid solution. Combine quickly using a vortex. To dilute the arachidonic acid/NaOH solution 10 times, add 90 µl of water. There should be 80 µl of reaction mix in each well. Using a multi-channel pipette, add 10 µl of diluted arachidonic acid/NaOH solution into each well to initiate the reactions concurrently.

[2] = test system: carrageenan-induced rat paw edema; experiment: Carrageenan-induced rat paw edema assay; type: in vivo; conditions: for % inhibition (edema) / Paw edema % inhibition / Paw edema thickness ± SEM: 50 mg/kg; for Paw edema % inhibition / Paw edema thickness ± SEM: rat; for ED50: Rattus norvegicus, dose producing 50% edema inhibition
Description: As previously described, paw thickness was evaluated at 1, 3, and 5 h following carrageenan injection at a dose of 50 mg/kg.

COX-1 = biological target: T2, COX-1 (Ovis aries, UniProt P05979); experiment: In vitro COX-1 inhibition (COX-1 Inhibitor Screening Kit-K548, Biovision); type: biochemical; conditions: mean of six values ± standard deviation
T2 construct: purchased Biovision K548
T2 sequence (P05979 25-600): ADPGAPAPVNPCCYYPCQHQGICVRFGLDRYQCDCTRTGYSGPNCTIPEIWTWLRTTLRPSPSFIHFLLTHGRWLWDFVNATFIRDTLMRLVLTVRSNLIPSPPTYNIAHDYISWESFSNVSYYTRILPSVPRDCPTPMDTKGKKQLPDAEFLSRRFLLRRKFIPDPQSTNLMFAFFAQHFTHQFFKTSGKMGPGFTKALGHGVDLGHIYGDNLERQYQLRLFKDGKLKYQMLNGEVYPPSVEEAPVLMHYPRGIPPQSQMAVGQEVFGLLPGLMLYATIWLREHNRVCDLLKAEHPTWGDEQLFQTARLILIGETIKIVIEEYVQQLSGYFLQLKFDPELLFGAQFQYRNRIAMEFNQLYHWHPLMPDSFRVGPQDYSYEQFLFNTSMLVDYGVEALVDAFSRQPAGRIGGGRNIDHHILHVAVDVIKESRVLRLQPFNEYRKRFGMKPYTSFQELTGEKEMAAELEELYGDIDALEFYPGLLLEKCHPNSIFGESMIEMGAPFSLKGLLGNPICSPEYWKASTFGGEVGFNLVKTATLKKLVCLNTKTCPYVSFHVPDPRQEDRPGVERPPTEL
Description: as §1
COX-1 inhibitor Screening Protocol: Dissolve the tested compounds in DMSO. Use COX assay buffer to dilute the relevant test concentration by 10X before using. Place 10 µl of diluted test inhibitor or assay buffer in the specified wells instead of the sample screen (S) or enzyme control (EC; no inhibitor). To one of the wells, add 2 µl of SC560 and 8 µl of COX Assay Buffer as an inhibitor control (IC). Before using, combine 2 µl of COX Cofactor with 398 µl of COX Assay Buffer to dilute COX cofactor 200 times. Blend thoroughly. Just before using, mix 5 µl of the provided arachidonic acid with 5 µl of NaOH to make the arachidonic acid solution. Combine quickly using a vortex. To dilute the arachidonic acid/NaOH solution 10 times, add 90 µl of water. There should be 80 µl of reaction mix in each well. Using a multi-channel pipette, add 10 µl of diluted arachidonic acid/NaOH solution to each well to initiate all the reactions at once.

PGE2 = PGE2 production in LPS-activated RAW 264.7 macrophages (ELISA); conditions: Mus musculus, RAW264.7, read-out: PGE2 IC50

| SMILES | % inhibition (edema) ([1]; 10 mg/kg) [%] | % inhibition (edema) ([1]; 25 mg/kg) [%] | IC50 at 24 h (MTS cytotoxicity assay) [µM] | COX-2 S.I. (COX-2; COX-1 IC50/COX-2 IC50) | IC50 (COX-2) [µM] | % inhibition (edema) [2] [%] | Paw edema % inhibition ([2]; 1 h after carrageenan) [%] | Paw edema thickness ± SEM ([2]; 1 h after carrageenan) [mm] | Paw edema % inhibition ([2]; 3 h after carrageenan) [%] | Paw edema thickness ± SEM ([2]; 3 h after carrageenan) [mm] | Paw edema % inhibition ([2]; 5 h after carrageenan) [%] | Paw edema thickness ± SEM ([2]; 5 h after carrageenan) [mm] | ED50 [2] [mg/kg] | IC50 (COX-1) [µM] | IC50 (PGE2) [µM] |
| --- | --- | --- | --- | --- | --- | --- | --- | --- | --- | --- | --- | --- | --- | --- | --- |
| CCOC(=O)COc1ccc(C2=NN(c3ccc(S(C)(=O)=O)cc3)C(c3ccc(OC)cc3)C2)cc1 (stereo not shown) [Compound 15c, Ethyl 2-(4-(5-(4-methoxyphenyl)-1-(4-(methylsulfonyl)phenyl)-4,5-dihydro-1H-pyrazol-3-yl)phenoxy)acetate] | 22.32 | 31.51 | 301 ± 10.7 | 28.56 | 0.397 ± 0.013 | 70.02 | 38.3 | 3.1 ± 0.002 | 55 | 2.56 ± 0.0034 | 66.1 | 2.1 ± 0.0084 | 24.1 | 11.3 ± 0.45 | 0.52 ± 0.029 |
| CCOC(=O)COc1ccc(C2=NN(c3ccc(S(C)(=O)=O)cc3)C(c3cc(OC)c(OC)c(OC)c3)C2)cc1 (stereo not shown) [Compound 15d, Ethyl 2-(4-(1-(4-(methylsulfonyl)phenyl)-5-(3,4,5-trimethoxyphenyl)-4,5-dihydro-1H-pyrazol-3-yl)phenoxy)acetate] | 29.52 | 36.61 | 183 ± 6.52 | – | 0.221 ± 0.007 | 80.29 | 61.1 | 2.23 ± 0.0045 | 41.9 | 2.79 ± 0.011 | 40 | 2.90 ± 0.002 | 31.2 | 15.5 ± 0.61 | 0.33 ± 0.021 |
| CCOC(=O)COc1ccc(C2=NN(c3ccc(S(C)(=O)=O)cc3)C(c3ccc(Br)cc3)C2)cc1 (stereo not shown) [Compound 15 h, Ethyl 2-(4-(5-(4-bromophenyl)-1-(4-(methylsulfonyl)phenyl)-4,5-dihydro-1H-pyrazol-3-yl)phenoxy)acetate] | 19.49 | 37.98 | 179 ± 6.37 | – | 0.103 ± 0.003 | 82.28 | 54.85 | 2.57 ± 0.0071 | 55.9 | 2.61 ± 0.018 | 59.3 | 2.44 ± 0.0099 | 29.9 | 6.88 ± 0.25 | 0.28 ± 0.032 |
